# According to publication PMC12030706, “Novel ^177Lu-Labeled [Thz^14]Bombesin(6–14) Derivatives with Low Pancreas Accumulation for Targeting Gastrin-Releasing Peptide Receptor-Expressing Cancer” (Pharmaceuticals, 2025):
# Assays:
# [1] = Ex vivo biodistribution in PC-3 tumor-bearing mice; details: mouse; for tissue uptake at 24 h: 24 h post-injection; for tissue uptake at 120 h: 120 h post-injection; for tissue uptake at 4 h: 4 h post-injection; for tissue uptake at 72 h: 72 h post-injection
# Protocol: SPECT/CT imaging experiments were performed using an MILabs (Houten, The Netherlands) U-SPECT-II/CT scanner with a custom-made ultra-high-sensitivity big mouse collimator (2 mm pinhole size) following previously reported procedures. […] Male NOD.Cg-Rag1^tm1Mom Il2rg^tm1Wjl/SzJ (NRG) mice were used in these experiments because of their immunodeficient characteristics and excellent radiation tolerance. Mice were anaesthetized and subcutaneously implanted with 5 × 10^6 PC-3 prostate cancer cells (100 µL; 1:1 PBS/Matrigel) behind the left shoulder. SPECT/CT imaging and biodistribution studies were performed once the tumors reached a diameter of 5–8 mm, typically after approximately 4 weeks of growth.
# For ex vivo biodistribution studies, the mice were injected with ~2–6 MBq of the radioligand. […] Blocking study was conducted at 1 h post-injection via co-injection of the radioligand with 100 μg of [D-Phe^6,Leu-NHEt^13,des-Met^14]Bombesin(6–14). Organs/tissues of interested were collected, weighed, and measured using an automatic gamma counter.
# [2] = system: PC-3 tumor-bearing NRG mouse; experiment: Longitudinal SPECT/CT imaging in PC-3 tumor-bearing mice; type: in vivo, mice (NRG); details: SPECT/CT images
# Protocol: The PC-3 tumor-bearing mice were sedated (2.5% isoflurane in O2) and injected with ^177Lu-labeled ligands (15–32 MBq) through a lateral caudal tail vein. […] At each time point, a 5 min CT scan was obtained using 615 μA and 60 kV parameters for localization and attenuation, followed by 2 × 30 min static SPECT scans acquired in list mode with an energy window centered around 208 keV. The MILabs U-SPECT II reconstruction software (version 8.00) was used to reconstruct data, and the images were decay corrected to the time of injection with PMOD v 3.402 (PMOD Technologies GmbH, Fallanden, Switzerland).
# [3] = LogD7.4 measurement, shake flask method; type: physicochemical; details: n-octanol/DPBS pH 7.4, n = 3
# Protocol: The logD7.4 values of all the ^177Lu-labeled GRPR-targeted ligands were measured using the shake flask method as previously reported. An aliquot (~2 MBq) of the radiolabeled product was added to a mixture of n-octanol (3 mL) and DPBS (3 mL, pH 7.4), followed by 1 min vortexing and 15 min centrifugation at 5000 rpm. Samples of the n-octanol (1 mL) and buffer (1 mL) layers were collected, and the activity was counted using a gamma counter. The logD7.4 values were calculated using the following equation: logD7.4=log10[countsn−octanolphase/countsbutterphase]
# [4] = adrenal glands, Uptake in adrenal glands
# [5] = large intestine, Uptake in large intestine
# [6] = small intestine, Uptake in small intestine
smiles,measurement,setting,value
"CC(C)C[C@H](NC(=O)[C@H](Cc1cnc[nH]1)N(C)C(=O)CNC(=O)[C@@H](NC(=O)[C@H](C)NC(=O)[C@H](Cc1c[nH]c2ccccc12)NC(=O)[C@H](CCC(N)=O)NC(=O)[C@@H](Cc1ccccc1)NC(=O)CN1CCC(NC(=O)CN2CCN(CC(=O)O)CCN(CC(=O)O)CCN(CC(=O)O)CC2)CC1)C(C)(C)C)C(=O)N1CSC[C@H]1C(N)=O [[^177Lu]Lu-LW01110, metal not drawn]",tissue uptake at 1 h,"[1]; adrenal glands, 100 ug, Uptake in adrenal glands, 1 h blocked (co-injected with 100 µg [D-Phe6,Leu-NHEt13,des-Met14]Bombesin(6-14))",0.54 ± 0.24 %ID/g
same,tissue uptake at 24 h,[1]; [4],0.98 ± 0.18 %ID/g
same,tissue uptake at 120 h,[1]; [4],0.25 ± 0.05 %ID/g
same,tissue uptake at 1 h,"[1]; blood, 100 ug, Uptake in blood, 1 h blocked (co-injected with 100 µg [D-Phe6,Leu-NHEt13,des-Met14]Bombesin(6-14))",0.58 ± 0.16 %ID/g
same,tissue uptake at 4 h,"[1]; blood, Uptake in blood",0.04 ± 0.01 %ID/g
same,tissue uptake at 24 h,"[1]; blood, Uptake in blood",0.01 %ID/g
same,tissue uptake at 1 h,"[1]; bone, 100 ug, Uptake in bone, 1 h blocked (co-injected with 100 µg [D-Phe6,Leu-NHEt13,des-Met14]Bombesin(6-14))",0.08 ± 0.02 %ID/g
same,tissue uptake at 4 h,"[1]; bone, Uptake in bone",0.05 ± 0.03 %ID/g
same,tissue uptake at 24 h,"[1]; bone, Uptake in bone",0.02 ± 0.01 %ID/g
same,tissue uptake at 72 h,"[1]; bone, Uptake in bone",0.02 ± 0.01 %ID/g
same,tissue uptake at 120 h,"[1]; bone, Uptake in bone",0.01 %ID/g
same,tissue uptake at 1 h,"[1]; brain, 100 ug, Uptake in brain, 1 h blocked (co-injected with 100 µg [D-Phe6,Leu-NHEt13,des-Met14]Bombesin(6-14))",0.02 %ID/g
same,tissue uptake at 1 h,"[1]; fat, 100 ug, Uptake in fat, 1 h blocked (co-injected with 100 µg [D-Phe6,Leu-NHEt13,des-Met14]Bombesin(6-14))",0.07 ± 0.02 %ID/g
same,tissue uptake at 1 h,"[1]; fat, Uptake in fat, 1 h post-injection",0.07 ± 0.02 %ID/g
same,tissue uptake at 4 h,"[1]; fat, Uptake in fat",0.01 %ID/g
same,tissue uptake at 24 h,"[1]; fat, Uptake in fat",0.01 %ID/g
same,tissue uptake at 1 h,"[1]; heart, 100 ug, Uptake in heart, 1 h blocked (co-injected with 100 µg [D-Phe6,Leu-NHEt13,des-Met14]Bombesin(6-14))",0.2 ± 0.06 %ID/g
same,tissue uptake at 1 h,"[1]; heart, Uptake in heart, 1 h post-injection",0.22 ± 0.01 %ID/g
same,tissue uptake at 72 h,"[1]; heart, Uptake in heart",0.02 %ID/g
same,tissue uptake at 120 h,"[1]; heart, Uptake in heart",0.01 %ID/g
same,tissue uptake at 1 h,"[1]; kidneys, 100 ug, Uptake in kidneys, 1 h blocked (co-injected with 100 µg [D-Phe6,Leu-NHEt13,des-Met14]Bombesin(6-14))",3.56 ± 0.77 %ID/g
same,tissue uptake at 1 h,"[1]; kidneys, Uptake in kidneys, 1 h post-injection",3.77 ± 0.58 %ID/g
same,tissue uptake at 4 h,"[1]; kidneys, Uptake in kidneys",2.67 ± 0.49 %ID/g
same,tissue uptake at 24 h,"[1]; kidneys, Uptake in kidneys",1.46 ± 0.42 %ID/g
same,tissue uptake at 72 h,"[1]; kidneys, Uptake in kidneys",< 1 %ID/g
same,tissue uptake at 120 h,"[1]; kidneys, Uptake in kidneys",0.2 ± 0.02 %ID/g
same,tissue uptake at 1 h,"[1]; large intestine, Uptake in large intestine, 1 h post-injection",1 ± 0.15 %ID/g
same,tissue uptake at 4 h,[1]; [5],1.15 ± 0.38 %ID/g
same,tissue uptake at 24 h,[1]; [5],0.44 ± 0.11 %ID/g
same,tissue uptake at 1 h,"[1]; liver, 100 ug, Uptake in liver, 1 h blocked (co-injected with 100 µg [D-Phe6,Leu-NHEt13,des-Met14]Bombesin(6-14))",0.26 ± 0.05 %ID/g
same,tissue uptake at 24 h,"[1]; liver, Uptake in liver",0.13 ± 0.04 %ID/g
same,tissue uptake at 72 h,"[1]; liver, Uptake in liver",0.07 ± 0.01 %ID/g
same,tissue uptake at 120 h,"[1]; liver, Uptake in liver",0.04 ± 0.01 %ID/g
same,tissue uptake at 24 h,"[1]; lungs, Uptake in lungs",0.07 ± 0.03 %ID/g
same,tissue uptake at 1 h,"[1]; muscle, Uptake in muscle, 1 h post-injection",0.15 ± 0.02 %ID/g
same,tissue uptake at 24 h,"[1]; muscle, Uptake in muscle",0.01 %ID/g
same,tissue uptake at 72 h,"[1]; muscle, Uptake in muscle",0.01 %ID/g
same,tissue uptake at 1 h,"[1]; pancreas, 100 ug, Uptake in pancreas, 1 h blocked (co-injected with 100 µg [D-Phe6,Leu-NHEt13,des-Met14]Bombesin(6-14))",2.71 ± 0.76 %ID/g
same,tissue uptake at 1 h,"[1]; pancreas, Uptake in pancreas, 1 h post-injection",11.1 ± 1.37 %ID/g
same,tissue uptake at 4 h,"[1]; pancreas, Uptake in pancreas",4.91 ± 0.63 %ID/g
same,tissue uptake at 24 h,"[1]; pancreas, Uptake in pancreas",3.1 ± 0.48 %ID/g
same,tissue uptake at 120 h,"[1]; pancreas, Uptake in pancreas",0.34 ± 0.04 %ID/g
same,tissue uptake at 1 h,"[1]; small intestine, 100 ug, Uptake in small intestine, 1 h blocked (co-injected with 100 µg [D-Phe6,Leu-NHEt13,des-Met14]Bombesin(6-14))",0.49 ± 0.14 %ID/g
same,tissue uptake at 1 h,"[1]; small intestine, Uptake in small intestine, 1 h post-injection",2.01 ± 0.13 %ID/g
same,tissue uptake at 4 h,[1]; [6],0.56 ± 0.2 %ID/g
same,tissue uptake at 24 h,[1]; [6],0.3 ± 0.1 %ID/g
same,tissue uptake at 1 h,"[1]; spleen, 100 ug, Uptake in spleen, 1 h blocked (co-injected with 100 µg [D-Phe6,Leu-NHEt13,des-Met14]Bombesin(6-14))",0.21 ± 0.05 %ID/g
same,tissue uptake at 1 h,"[1]; spleen, Uptake in spleen, 1 h post-injection",0.28 ± 0.05 %ID/g
same,tissue uptake at 4 h,"[1]; spleen, Uptake in spleen",0.15 ± 0.03 %ID/g
same,tissue uptake at 72 h,"[1]; spleen, Uptake in spleen",0.1 ± 0.02 %ID/g
same,tissue uptake at 120 h,"[1]; spleen, Uptake in spleen",0.05 ± 0.01 %ID/g
same,tissue uptake at 1 h,"[1]; stomach, 100 ug, Uptake in stomach, 1 h blocked (co-injected with 100 µg [D-Phe6,Leu-NHEt13,des-Met14]Bombesin(6-14))",0.17 ± 0.1 %ID/g
same,tissue uptake at 1 h,"[1]; stomach, Uptake in stomach, 1 h post-injection",0.99 ± 0.21 %ID/g
same,tissue uptake at 4 h,"[1]; stomach, Uptake in stomach",0.43 ± 0.16 %ID/g
same,tissue uptake at 24 h,"[1]; stomach, Uptake in stomach",0.17 ± 0.07 %ID/g
same,tissue uptake at 72 h,"[1]; stomach, Uptake in stomach",0.08 ± 0.02 %ID/g
same,tissue uptake at 120 h,"[1]; stomach, Uptake in stomach",0.04 ± 0.02 %ID/g
same,tissue uptake at 1 h,"[1]; testes, 100 ug, Uptake in testes, 1 h blocked (co-injected with 100 µg [D-Phe6,Leu-NHEt13,des-Met14]Bombesin(6-14))",0.3 ± 0.16 %ID/g
same,tissue uptake at 24 h,"[1]; testes, Uptake in testes",0.02 ± 0.01 %ID/g
same,tissue uptake at 72 h,"[1]; testes, Uptake in testes",0.02 %ID/g
same,tissue uptake at 120 h,"[1]; testes, Uptake in testes",0.01 %ID/g
same,excretion pathway,[2],excreted mainly via the renal pathway
same,logD,[3],-2.76 ± 0.1
